Reference: publication PMC6694155, “PTPσ inhibitors promote hematopoietic stem cell regeneration” (Nature Communications, 2019)
Where “and” joins values, the source holds several entries; their conditions need not be identical. Identical values can stand only once.

Key:
[1] = target: T1, SHP-1 (Protein-Tyrosine Phosphatase 1C) (Homo sapiens, UniProt P29350); assay: PhosphataseProfiler screen: SHP-1; format: biochemical; settings: replicates
T1 construct: purchased Eurofins Pharma Discovery Services UK
Protocol: (§1) Compound DJ001 was evaluated in a PhosphataseProfiler™ screen at 10 μM and 1 μM (2.7 μg/mL and 0.27 μg/mL) concentrations at Eurofins Pharma Discovery Services UK (Study number UK022-0004033) against a panel of 21 Phosphatases. In each experiment, the respective reference antagonist/agonist was tested directly with DJ001 and the data were compared with historical values determined at Eurofins. DJ001 compound inhibition was calculated as percentage inhibition of the enzymatic activity compared with control.

[2] = target: T2, Lambda PP (Lambda Protein Phosphatase) (Escherichia phage lambda, UniProt P03772); assay: PhosphataseProfiler screen: Lambda PP; format: biochemical; settings: replicates
T2 construct: purchased Eurofins Pharma Discovery Services UK
Protocol: as §1

[3] = test system: C57BL/6 mice; assay: Hematopoietic regeneration at day +10 after 750 cGy TBI (PB counts, BM KSL and progenitor cells, CFCs); format: in vivo, mouse; design: Supplementary Figure 4c: BFU-E / Supplementary Figure 5e: CFU-GM / Supplementary Figure 5e: BFU-E / Supplementary Figure 5e: CFU-GEMM: unit not given here
Protocol: Femurs and tibiae were collected from killed C57BL/6 or Ptprs^−/− mice and flushed with IMDM containing 10% FBS and 1% penicillin–streptomycin for BM cells. PB was collected through sub-mandibular puncture. Cells were filtered through a 40 μM strainer and then treated with ACK lysis buffer (Sigma Aldrich) before antibody staining for flow cytometry. For KSL and CD150^+CD48^−KSL cell analysis, BM cells were stained with allophycocyanin (APC)-and Cy7-conjugated anti-mouse Sca1 (BD Biosciences, #560654, 1:100), phycoerythrin (PE)-conjugated anti-mouse c-kit (BD Biosciences, #553355, 1:100), V450 lineage cocktail (BD Biosciences, 561301, 1:10), Alexa Fluor 488-conjugated anti-mouse CD48 (BioLegend, #103414, 1:100), and Alexa Fluor 647-conjugated anti-mouse CD150 (Biolegend, #115918, 1:100) antibodies. For MEP, CMP, GMP, and CLP cell analysis, BM cells were stained with APC-Cy7-conjugated anti-mouse Sca1 (BD Biosciences, #560654, 1:100), PE-conjugated anti-mouse ckit (BD Biosciences, #553355, 1:100), V450 lineage cocktail (BD Biosciences, #561301; 1:10), Alexa Fluor 488-conjugated anti-mouse CD127 (BD Biosciences, #561533, 1:100), Alexa Fluor 647-conjugated anti-mouse CD34 (BD Biosciences, #560230; 1:100), and BV605-conjugated anti-mouse CD16/32 antibodies (BD Biosciences, #563006; 1:100). For donor engraftment analysis in transplanted mice, PB or BM cells were stained with BV605-conjugated anti-mouse CD45.2 (BioLegend, #109841, 1:100), fluorescein isothiocyanate (FITC)-conjugated anti-mouse CD45.1 (BD Biosciences, #553775, 1:100), PE-conjugated anti-mouse Mac-1 (BD Biosciences, #557397, 1:100) and anti-mouse Gr1 (BD Biosciences, #553128, 1:100), V450-conjugated anti-mouse CD3 (BD Biosciences, #561389, 1:100), and APC-Cy7-conjugated anti-mouse B220 (BD Biosciences, 552094, 1:100) antibodies.
(§2) For survival studies, 10-week-old female C57BL/6 mice were irradiated with 750 cGy TBI, which is lethal for ~50% of C57BL/6 mice by day + 30 (LD50/30), using a Shepherd Cesium-137 irradiator. Twenty four hours post irradiation, mice were administered daily subcutaneous injections of 5 mg/kg DJ001 or DJ009, or vehicle in a volume of 100 μL for 10 days. DJ001 or DJ009 injections were prepared in PBS, 0.5% Tween 80, and 10% DMSO. Corresponding vehicle injections contained PBS, 10% DMSO, and 0.5% Tween 80. PB complete blood counts were measured using a Hemavet 950 instrument (Drew Scientific) at day + 10 post irradiation. For hematopoietic analysis, BM cells were collected at day + 10 post irradiation. To study whether DJ001 increased survival rates through activation of RAC signaling, the RAC inhibitor, EHT1864 (Selleckchem), was dissolved in PBS and administered intraperitoneally, 40 mg/kg every other day, to 750 cGy-irradiated mice until day + 10.
CFC assays (colony-forming unit-granulocyte monocyte), burst-forming unit-erythroid, and CFU-GEMM were performed using MethoCult GF M3434 (Stemcell Technologies)[6]. For all in vitro assays, BM CD34^−KSL cells, KSL cells, and Lin^− cells were cultured in TSF media (IMDM, 10% FBS, 1% pen-strep, 20 ng/mL recombinant mouse TPO, 125 ng/mL recombinant mouse SCF, 50 ng/mL recombinant mouse Flt3 ligand). Recombinant mouse SCF, Flt3 ligand, and TPO were purchased from R&D Systems. For competitive repopulation assays, BM cells were isolated from donor 10–12-week-old female CD45.2^+ mice. Recipient 10-week-old female CD45.1^+ B6.SJL mice were irradiated with 950 cGy TBI using a Cs137 irradiator and donor BM cells were administered via tail vein injection along with a competing dose of 1 × 10^5 non-irradiated host BM cells. Multilineage donor hematopoietic cell engraftment was measured in the PB by flow cytometry.

[4] = test system: C57BL/6 mice; assay: Survival study after 750 cGy TBI; format: in vivo, mouse
Protocol: as §2

[5] = day +10 after 750 cGy TBI, individual mice
[6] = day +10 after 750 cGy TBI, replicates
[7] = day +10 after 750 cGy, 5 mg/kg s.c. daily
[8] = day +10 after 750 cGy, 5 mg/kg s.c. daily, 5 mg/kg
[9] = 750 cGy TBI, DJ001 daily day +1 to +10, through day +40
[10] = after 750 cGy TBI, individual mice

T2 sequence (P03772 whole entry): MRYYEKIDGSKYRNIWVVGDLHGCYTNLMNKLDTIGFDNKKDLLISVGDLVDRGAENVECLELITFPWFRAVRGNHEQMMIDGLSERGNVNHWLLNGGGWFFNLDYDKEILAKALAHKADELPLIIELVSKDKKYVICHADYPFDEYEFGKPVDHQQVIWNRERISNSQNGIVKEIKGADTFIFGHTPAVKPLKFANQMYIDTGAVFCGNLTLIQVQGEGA
T1 sequence (P29350 whole entry, species assumed): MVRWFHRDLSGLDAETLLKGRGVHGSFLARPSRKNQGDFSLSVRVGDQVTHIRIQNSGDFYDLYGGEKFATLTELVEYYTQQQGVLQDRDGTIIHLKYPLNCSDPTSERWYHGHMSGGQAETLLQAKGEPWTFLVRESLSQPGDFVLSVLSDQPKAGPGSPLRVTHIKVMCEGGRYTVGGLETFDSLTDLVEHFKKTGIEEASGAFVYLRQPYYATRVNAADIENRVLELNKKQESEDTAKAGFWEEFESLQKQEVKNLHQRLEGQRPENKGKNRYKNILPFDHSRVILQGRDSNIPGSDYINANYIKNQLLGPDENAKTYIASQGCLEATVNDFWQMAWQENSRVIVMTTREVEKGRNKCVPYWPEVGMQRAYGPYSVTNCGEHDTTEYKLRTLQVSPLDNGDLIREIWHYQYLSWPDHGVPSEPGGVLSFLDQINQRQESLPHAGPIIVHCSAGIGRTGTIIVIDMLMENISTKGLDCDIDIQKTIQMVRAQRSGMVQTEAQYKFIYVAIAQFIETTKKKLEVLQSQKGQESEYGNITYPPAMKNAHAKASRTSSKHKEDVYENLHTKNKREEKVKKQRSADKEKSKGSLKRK

## O=C(/C=C\Nc1cccc([N+](=O)[O-])c1)c1ccccc1 [DJ001, (Z)-3-((3-nitrophenyl)amino)-1-phenylprop-2-en-1-one]
[1]; 2.7 μg/mL DJ001
  Supplementary Figure 1: SHP-1 activity: 81 and 82 and 85
[1]; 0.27 g/mL DJ001
  Supplementary Figure 1: SHP-1 activity: 99 (2×) and 102
[2]; 0.27 μg/mL DJ001
  Supplementary Figure 1: Lambda PP activity: 126 and 132 and 133
[2]; 2.7 μg/mL DJ001
  Supplementary Figure 1: Lambda PP activity: 118 and 122 and 125
[3]; 750 cGy, 5 mg/kg s.c. daily day +1 to +10
  recovery of BM KSL cells, ckit+sca-1−lin− myeloid progenitors and CFCs following TBI: accelerated the recovery
[3]; day +10 after 750 cGy
  percentages of BM MEPs, CMPs, GMPs, or PB myeloid, B-cell or T-cell populations: did not alter the percentages
  percentages of BM common lymphoid progenitors (CLPs): modest increase
[3]; [5]
  Supplementary Figure 4d (center left panel): BM progenitor cells: 0.05534 and 0.6345 and 0.3797 and 0.1366 and 0.1346 and 0.08271 and 0.1205 and 0.1142 and 0.1459 and 0.6791
  Supplementary Figure 4d (center right panel): BM progenitor cells: 0.1315 and 0.5274 and 0.7758 and 0.2631 and 0.4325 and 0.1366 and 0.1603 and 0.4187 and 0.3345 and 1.367
  Supplementary Figure 4d (left panel): BM progenitor cells: 0.1083 and 0.8819 and 0.5478 and 0.2535 and 0.1578 (2×) and 0.2622 and 0.4013 and 0.1995 and 0.6663
  Supplementary Figure 4d (right panel): BM progenitor cells: 0.07453 and 0.07514 and 0.1093 and 0.1068 and 0.06267 and 0.05116 and 0.04956 and 0.2046 and 0.1087
[3]; [6]
  Supplementary Figure 4c: BFU-E: 0 (2×) and 2 and 1 (3×)
  Supplementary Figure 4c: CFU-GEMM: 0 and 2 and 1 (2×) and 3 (2×)
  Supplementary Figure 4c: CFU-GM: 5 (3×) and 7 and 6 and 10
[3]; [7]
  PB lymphocytes compared with vehicle: more than twofold increased
  PB neutrophils compared with vehicle: more than twofold increased
  PB white blood cells compared with vehicle: more than twofold increased
[3]; [8]
  PB WBCs per mouse (Figure 2c left panel): 0.86 and 0.62 and 0.68 and 0.76 and 0.34 and 0.7 and 0.52 and 0.64
  PB lymphocytes (LYMPH) per mouse (Figure 2c right panel): 0.38 and 0.39 and 0.4 and 0.45 and 0.24 and 0.36 and 0.33 and 0.42 and 0.37
  PB neutrophils (NEU) per mouse (Figure 2c center panel): 0.27 and 0.16 and 0.18 and 0.17 and 0.06 and 0.2 and 0.12
[3]; day +10 post 750 cGy
  numbers of BM KSL cells per mouse (Figure 2e center left panel): 15.7 and 9.66 and 15 and 10.6 and 9.42 and 14.8 and 11.8 and 11.5 and 10.7
  numbers of BM c-kit+sca-1− cells per mouse (Figure 2e right panel): 1.33 and 6.87 and 4.4 and 4.05 and 3.27 and 5.18 and 7.29 and 2.89 and 7.28
  percentages of BM KSL cells per mouse (Figure 2e left panel): 0.749% and 0.807% and 1.138% and 0.766% and 0.608% and 0.862% and 0.365% and 1.197% and 0.783%
  percentages of BM c-kit+sca-1− cells per mouse (Figure 2e center right panel): 1.717% and 4.73% and 3.337% and 2.916% and 2.11% and 3.013% and 2.25% and 3.004% and 5.312%
[3]; irradiated mice, day +10
  increase of percentages and numbers of BM KSL stem/progenitor cells compared to irradiated control mice: 2 fold
[4]; [9]
  percent survival: 93%
  survival, mice alive of total (Fig. 2f): 27/29 and 27 of 29
[4]; 750 cGy, 10-day treatment, EHT1864 40 mg/kg i.p. every other day
  survival, mice alive of total (Fig. 3f): 11/15
[4]; Days Post-irradiation 14
  Figure 3f: survival event per mouse (1 = event, 0 = censored): 1
[4]; Days Post-irradiation 17
  Figure 3f: survival event per mouse (1 = event, 0 = censored): 1
[4]; Days Post-irradiation 18
  Figure 3f: survival event per mouse (1 = event, 0 = censored): 1
  survival source data, event code per mouse: 1
[4]; Days Post-irradiation 20
  Figure 3f: survival event per mouse (1 = event, 0 = censored): 1
[4]; Days Post-irradiation 30
  Figure 3f: survival event per mouse (1 = event, 0 = censored): 0
[4]; Days Post-irradiation 40
  survival source data, event code per mouse: 0

## O=C(/C=C\Nc1cc(F)cc(F)c1)c1ccccc1 [DJ009, (Z)-3-((3,5-difluorophenyl)amino)-1-phenylprop-2-en-1-one]
[3]; 750 cGy TBI, 5 mg/kg DJ009 daily for 10 days
  PB WBCs, neutrophils and lymphocytes, BM KSL cells, and CFCs: significant increase
[3]; [10]
  Supplementary Figure 5c (center panel): PB counts: 0.08 and 0.19 and 0.29 and 0.1 and 0.39 and 0.13 and 0.2
  Supplementary Figure 5c (left panel): PB counts: 1.4 and 0.72 and 1.76 and 0.4 and 1.62 and 0.52 and 0.94
  Supplementary Figure 5c (right panel): PB counts: 1.27 and 0.4 and 1.32 and 0.26 and 0.96 and 0.29 and 0.63
  Supplementary Figure 5d (center panel): BM cells: 4.83 and 5.26 and 6.06 and 14.68 and 8.28 and 9.38 and 7.6
  Supplementary Figure 5d (left panel): BM cells: 1.079 and 0.621 and 0.841 and 0.709 and 1.581 and 1.301 and 0.94
[3]; after 750 cGy TBI, replicates
  Supplementary Figure 5e: BFU-E: 0 (6×) and 1 (2×) and 2
  Supplementary Figure 5e: CFU-GEMM: 1 and 0 (3×) and 3 and 2 (3×) and 4
  Supplementary Figure 5e: CFU-GM: 5 and 4 and 2 and 6 and 8 and 7 and 19 and 18 and 15
[4]; 750 cGy TBI, 5 mg/kg daily for 10 days
  survival of irradiated C57BL/6 mice (in words): significantly increased survival
[4]; 750 cGy, 5 mg/kg DJ009 daily for 10 d
  survival, mice alive of total (Supplementary Fig. 5f): 24/24
[4]; Days post-radiation 30
  Supplementary Figure 5f: survival event per mouse (1 = event, 0 = censored): 0
